pIC50: −log10 of the molar value.
Columns and labels:
[1] = Oral bioavailability after oral dosing in rat; details: in vivo, Sprague Dawley rats, IV 1 mg/kg, PO 5 mg/kg, read-out: F % (oral bioavailability)
Protocol: Example A-2: Oral Bioavailability of the Compounds after Oral Dosing in Rat
Oral bioavailability of the compounds was determined in Sprague Dawley rats. The table below summarizes the results. Each compound was dosed intravenously (IV) at 1 mg/kg and orally (PO) 5 mg/kg using the respective vehicles listed below. The compounds display low (<10%) oral bioavailability (F %).

human SSTR5 = molecular target: T1, human SSTR5 (Homo sapiens, UniProt P35346); experiment: Inositol phosphate (IP1) accumulation assay, antagonist mode; type: cell-based; details: CHO-K1 cells stably co-expressing human SSTR5 with Gqi5; pre-incubation with antagonist, then SST28 agonist; IP1 HTRF readout
T1 construct: expressed in transfected cells
Source text: Inositol Phosphate Accumulation Assay
CHO-K1 cells stably co-expressing human SSTR5 with Gqi5 were developed using Jump-In technology from Thermo-Fisher. Gqi5 is the mouse G alpha q protein, that was modified to interact with Gi-coupled GPCRs as described previously (Coward, P.; Chan, S. D.; Wada, H. G.; Humphries, G. M.; Conklin, B. R. Chimeric G proteins Allow a High-Throughput Signaling Assay of Gi-Coupled Receptors. Anal Biochem. 1999, 270(2), 242-248).
Co-expression of Gqi5 with SSTR5 allowed monitoring of SSTR5 activity by following IP1 accumulation. The assay was performed in a 384-well plate format using the IP1 assay kit from Cis-Bio in an antagonist mode, i.e., pre-incubation with antagonist following by receptor activation by agonist at a concentration generating 90% of full activation. Frozen cells expressing human SSTR5 were thawed, washed, and then plated in DMEM supplemented with 10% FBS and non-essential amino acids. 40 μL of 2.5×10^5 cells/mL were plated on a Poly D-Lysine coated 384-well white plate. The cells were then incubated for 16 hr. at 37° C./5% CO2. After 16 hour the medium was removed, and 10 μL of stimulation buffer was added to the cells. Test compounds were dissolved in DMSO at concentrations 2000-fold that of the final assay concentrations. 7.5 nL compound solutions were transferred to the cell plates using a Labcyte Echo® acoustic liquid handler. The plates were then incubated for 15 minutes at 37° C./5% CO2. After the first incubation, 5 μL of 30 nM SST28 were added to the cells, and the cells were incubated for 90 minutes at 37° C./5% CO2. 5 μL of detection buffer (prepared as described in the IP-1 kit) was added to each well, and the plates were incubated at RT for 1 hour.
TR-FRET was measured using a ClarioSTAR plate reader, calculating the ratio between emissions at 665 nm and 620 nm (HTRF ratio). The HTRF ratio for positive (Max) and negative (Min) controls were used to normalize HTRF data and generate values for % inhibition. IC50 and maximal inhibition values were determined using a standard 4-parameter fit.

T1 sequence (P35346 whole entry): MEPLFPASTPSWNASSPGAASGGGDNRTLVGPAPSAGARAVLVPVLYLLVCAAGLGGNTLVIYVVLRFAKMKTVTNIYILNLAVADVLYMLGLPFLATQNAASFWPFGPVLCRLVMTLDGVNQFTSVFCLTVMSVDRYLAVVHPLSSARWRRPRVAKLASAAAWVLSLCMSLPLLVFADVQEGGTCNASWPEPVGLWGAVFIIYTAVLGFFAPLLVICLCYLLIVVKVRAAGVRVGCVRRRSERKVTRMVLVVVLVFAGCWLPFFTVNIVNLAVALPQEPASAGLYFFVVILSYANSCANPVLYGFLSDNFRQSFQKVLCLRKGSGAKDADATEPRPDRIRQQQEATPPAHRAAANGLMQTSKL

SMILES | bioavailability [1] | pIC50 (human SSTR5)
CCOc1cc(-c2ccc(F)cn2)c(C2CC2)cc1CN1CCC2(CC1)CN(c1ccc(P(=O)(O)O)cc1)C(=O)O2 [Compound 9, (4-(8-(5-cyclopropyl-2-ethoxy-4-(5-fluoropyridin-2-yl)benzyl)-2-oxo-1-oxa-3,8-diazaspiro[4.5]decan-3-yl)phenyl)phosphonic acid] | 0.2% | ≥ 7.00
CCOc1cc(-c2ccc(F)cc2)c(C2CC2)cc1CN1CCC2(CC1)CN(c1ccc([PH](=O)O)cc1)C(=O)O2 [Compound 3, (4-(8-((2-cyclopropyl-5-ethoxy-4′-fluoro-[1,1′-biphenyl]-4-yl)methyl)-2-oxo-1-oxa-3,8-diazaspiro[4.5]decan-3-yl)phenyl)phosphinic acid] | 1.9% | ≥ 7.00
CCOc1cc(C#N)c(C2CC2)cc1CN1CCC2(CC1)CN(c1ccc(P(C)(=O)O)cc1)C(=O)O2 [Compound 8, (4-(8-(4-cyano-5-cyclopropyl-2-ethoxybenzyl)-2-oxo-1-oxa-3,8-diazaspiro[4.5]decan-3-yl)phenyl)(methyl)phosphinic acid] | – | ≥ 7.00
CCOc1cc(-c2ccc(F)cc2)c(C2CC2)cc1CN1CCC2(CC1)CN(c1ccc(P(=O)(O)O)cn1)C(=O)O2 [Compound 5, (6-(8-((2-cyclopropyl-5-ethoxy-4′-fluoro-[1,1′-biphenyl]-4-yl)methyl)-2-oxo-1-oxa-3,8-diazaspiro[4.5]decan-3-yl)pyridin-3-yl)phosphonic acid] | – | ≥ 7.00
CCOc1cc(C(=O)OC)c(C2CC2)cc1CN1CCN(C(=O)Oc2ccc(CNC[C@H](O)[C@@H](O)[C@H](O)[C@H](O)CO)cc2)CC1 [Compound 42, 4-((((2S,3R,4R,5R)-2,3,4,5,6-pentahydroxyhexyl)amino)methyl)phenyl 4-(5-cyclopropyl-2-ethoxy-4-(methoxycarbonyl)benzyl)piperazine-1-carboxylate] | – | < 5.30
CCOc1cc(-c2ccc(F)cc2)c(C2CC2)cc1CN1CCC2(CC1)CN(c1ccc(CCNC(=N)NC(=N)N)cc1)C(=O)O2 [Compound 14, 1-carbamimidoyl-3-[2-[4-[8-[[5-cyclopropyl-2-ethoxy-4-(4-fluorophenyl)phenyl]methyl]-2-oxo-1-oxa-3,8-diazaspiro[4.5]decan-3-yl]phenyl]ethyl]guanidine] | – | ≥ 7.00
CCOc1cc(-c2ccc(F)cn2)c(C2CCC2)cc1CN1CCC2(CC1)CN(c1ccc(P(=O)(O)O)cc1)C(=O)O2 [Compound 35, (4-(8-(5-cyclobulyl-2-ethoxy-4-(5-fluoropyridin-2-yl)benzyl)-2-oxo-1-oxa-3,8-diazaspiro[4.5]decan-3-yl)phenyl)phosphonic acid] | – | ≥ 7.00
CCOc1cc(-c2ccc(F)cc2)c(C2CC2)cc1CN1CCC2(CC1)CN(c1ccc(P(=O)(O)O)cc1)C(=O)O2 [Compound 1, (4-(8-((2-cyclopropyl-5-ethoxy-4′-fluoro-[1,1′-biphenyl]-4-yl)methyl)-2-oxo-1-oxa-3,8-diazaspiro[4.5]decan-3-yl)phenyl)phosphonic acid] | 0.9% | ≥ 7.00
CCOc1cc(-c2ccc(F)cc2)c(C2CC2)cc1CN1CCC2(CC1)CN(c1ccc(P(C)(=O)O)cc1)C(=O)O2 [Compound 2, (4-(8-((2-cyclopropyl-5-ethoxy-4′-fluoro-[1,1′-biphenyl]-4-yl)methyl)-2-oxo-1-oxa-3,8-diazaspiro[4.5]decan-3-yl)phenyl)(methyl)phosphinic acid] | 8.7% | ≥ 7.00
CCOc1cc(C(=O)OC)c(C2CC2)cc1CN1CCC2(CC1)CN(c1ccc(P(=O)(O)O)cc1)C(=O)N2 [Compound 21, (4-(8-(5-cyclopropyl-2-ethoxy-4-(methoxycarbonyl)benzyl)-2-oxo-1,3,8-triazaspiro[4.5]decan-3-yl)phenyl)phosphonic acid] | – | ≥ 7.00
CCOc1cc(S(C)(=O)=O)c(C2CC2)cc1CN1CCC2(CC1)CN(c1cccc(CCCCNC(=O)NC(CO)(CO)CO)c1)C(=O)N2 [Compound 31, 1-(4-(3-(8-(5-cyclopropyl-2-ethoxy-4-(methylsulfonyl)benzyl)-2-oxo-1,3,8-triazaspiro[4.5]decan-3-yl)phenyl)butyl)-3-(1,3-dihydroxy-2-(hydroxymethyl)propan-2-yl)urea] | – | 6.00 to 7.00
CCOc1cc(-c2ccc(F)cc2)c(C2CC2)cc1CN1CCC2(CC1)CN(c1ccc(CNC[C@H](O)[C@@H](O)[C@H](O)[C@H](O)CO)cc1)C(=O)O2 [Compound 32, 8-((2-cyclopropyl-5-ethoxy-4'-fluoro-[1,1'-biphenyl]-4-yl)methyl)-3-(4-((((2S,3R,4R,5R)-2,3,4,5,6-pentahydroxyhexyl)amino)methyl)phenyl)-1-oxa-3,8-diazaspiro [4.5]decan-2-one] | – | ≥ 7.00
CCOc1cc(-c2ccc(F)cc2)c(C2CC2)cc1CN1CCC2(CC1)CN(c1ccc(P(C)(=O)O)cc1)C(=O)N2 [Compound 28, (4-(8-((2-cyclopropyl-5-ethoxy-4′-fluoro-[1,1′-biphenyl]-4-yl)methyl)-2-oxo-1,3,8-triazaspiro[4.5]decan-3-yl)phenyl)(methyl)phosphinic acid] | – | ≥ 7.00
CCOc1cc(C(=O)OC)c(C2CC2)cc1CN1CCC2(CC1)CC(=O)N(c1ccc(CCCCNC(=O)NC(CO)(CO)CO)cc1)C2 [Compound 16, methyl 2-cyclopropyl-4-((2-(4-(4-(3-(1,3-dihydroxy-2-(hydroxymethyl)propan-2-yl)ureido)butyl)phenyl)-3-oxo-2,8-diazaspiro[4.5]decan-8-yl)methyl)-5-ethoxybenzoate] | – | < 5.30
CCOc1cc(-c2ccc(F)cc2)c(C2CC2)cc1CN1CCN(S(=O)(=O)Cc2ccc(P(=O)(O)O)cc2)CC1 [Compound 38, (4-(((4-((2-cyclopropyl-5-ethoxy-4′-fluoro-[1,1′-biphenyl]-4-yl)methyl)piperazin-1-yl)sulfonyl)methyl)phenyl)phosphonic acid] | – | ≥ 7.00
CCOc1cc(C(=O)OC)c(C2CC2)cc1CN1CCC2(CC1)CC(=O)N(c1ccc(CCCCNS(C)(=O)=O)cc1)C2 [Compound 18, methyl 2-cyclopropyl-5-ethoxy-4-((2-(4-(4-(methylsulfonamido)butyl)phenyl)-3-oxo-2,8-diazaspiro[4.5]decan-8-yl)methyl)benzoate] | – | 5.30 to 6.00
CCOc1cc(-c2ccc(F)cc2)c(C2CC2)cc1CN1CCC2(CC1)CN(c1ccc(B(O)O)cc1)C(=O)O2 [Compound 13, (4-(8-((2-cyclopropyl-5-ethoxy-4′-fluoro-[1,1′-biphenyl]-4-yl)methyl)-2-oxo-1-oxa-3,8-diazaspiro[4.5]decan-3-yl)phenyl)boronic acid] | – | ≥ 7.00

Source: patent US20230050965A1, “SSTR5 ANTAGONISTS” (Kallyope, Inc., priority 2019, published 2023)
